Source: patent US12208228B2, “Microneedle array comprising a heat-producing element” (LTS LOHMANN THERAPIE-SYSTEME AG, priority 2019, dated 2025)

Experiment: In vitro permeation studies in static vertical Franz cells, microneedle systems pressed into dermatomized minipig skin
Type: in vitro ADME, Göttingen Minipigs
Description: The back part of Gottinger Minipighaut (Ellegaard Göttingen Minipigs Agricultural Service, Dalmose, Denmark) was used as the skin. The skin, which is delivered as a so-called full skin without subcutaneous fatty tissue in a frozen state, must first be thawed at room temperature and carefully shaved with plenty of water without using any shaving foam to remove the bristles. The skin is then dermatomized or cut to a layer thickness of 800 μm with the aid of an Acculan 3TI battery-powered electric dermatome (Aesculap AG, Tuttlingen, Germany). Circular punched pieces having a diameter of 25 mm are then knocked out of the pieces of skin treated in this way with the help of a corresponding punching tool, for example, a handle punch and are stored shrink-wrapped in PE bags until further use at −20 degrees Celsius (maximum storage period under these conditions up to 12 months).
The permeation studies were performed in static and vertical Franz cells (Glastechnik Gräfenroda, Germany) with a diffusion area of 1.595 cm^2 and an acceptor volume of 10 ml. The acceptor medium used was phosphate buffer having a pH value of 7.4 according to DAB 10, tempered to 32° C. during the entire permeation time and constantly stirred for uniform mixing of the permeated active ingredient. The acceptor medium was completely replaced by fresh one at the scheduled sampling times. Before the pre-prepared skin punches are clamped in the Franz cells and filled with acceptor, the microneedle systems must first be pressed into the top layer of skin using a manufactured pressure adapter, in the sense of a nail gun with an impulse strength of 150 N/cm^2.
Before filling with the acceptor and inserting the Franz cells into the water bath controlled to a temperature of 32° C., the temperature-controlled cell heads are put on or they are prepared with an active heat pack mixture, see also the figures including explanations.
The analytical determination was carried out by means of HPLC on a C18-Inertsil separation column (250×4.6 mm, 5 μm particle size; VDS Optilab, Berlin) by means of UV detection at 282 nm and at 30 degrees Celsius. A mixture consisting of acetonitrile, methanol and 0.02167 m sodium dihydrogen phosphate solution 10:20:85 (v %/v %/v %) and a pH of 3.2 was used as the eluent. The flow rate was 1.0 ml/min and 20 μl were injected.
The analytical determination was carried out by means of HPLC on a C12-Synergi-Max-RP separation column (150×4.6 mm, 4 μm particle size; Phenomenex, Aschaffenburg) by means of UV detection at 273 nm and at 25 degrees Celsius. A mixture consisting of methanol and HPLC water 40:60 (v %/v %) was used as an eluent. The flow rate was 1.0 ml/min and 20 μl were injected.

lag time (FIG. 2, inventive example with external heat generation (heatable thermostated-water cell head), period up to 6 hours) | amount or rate of release of API, factor greater than that of the reference (FIG. 2, inventive example with heat (heatable cell head) vs reference without heat, up to 6 hours) | lag time (FIG. 2, reference system without additional heat generation, period up to 6 hours) | lag time of reference larger than inventive example by a factor (FIG. 2, reference without heat vs inventive example with heat) | lag time (FIG. 3, inventive example with external heat generation (heatable thermostated-water cell head), period of 60 minutes) | amount or rate of release of API, factor greater than that of the reference (FIG. 3, inventive example with heat (heatable cell head) vs reference without heat, 60 minutes) | lag time (FIG. 3, reference system without additional heat generation, period of 60 minutes) | lag time of reference larger than inventive example by a factor (FIG. 3, reference without heat vs inventive example with heat) | amount or rate of release of API, factor greater than that of the reference (FIG. 4, inventive example with commercial heat pack vs reference without heat, up to 6 hours) | lag time (FIG. 4, inventive example with heat from commercial heat pack (Thermopad; pyrophoric iron, activated carbon, sodium chloride), period up to 6 hours) | lag time (FIG. 4, reference system without additional heat generation, period up to 6 hours) | lag time of reference larger than inventive example by a factor (FIG. 4, reference without heat vs inventive example with heat pack) | SMILES | lag time (FIG. 5, inventive example with external heat generation (heatable thermostated-water cell head), period of 8 hours) | amount or rate of release of API, factor greater than that of the reference (FIG. 5, inventive example with heat (heatable cell head) vs reference without heat, 8 hours) | lag time (FIG. 5, reference system without additional heat generation, period of 8 hours) | lag time of reference larger than inventive example by a factor (FIG. 5, reference without heat vs inventive example with heat)
20 min | ~5 | 40 min | 2 | 0.5 min | ~4 | 1.0 min | 2 | ~8 | 0.1 min | 0.4 min | 4 | CNS(=O)(=O)Cc1ccc2[nH]cc(CCN(C)C)c2c1 [sumatriptan succinate, Sumatriptan succinate] | – | – | – | –
– | – | – | – | – | – | – | – | – | – | – | – | Cn1c(=O)c2c(ncn2C)n(C)c1=O [caffeine, Caffeine] | 40 min | ~2 | 100 min | 2.5
